Like-named read-outs stand apart in the source and are kept apart here.
Columns and labels:
[1] = system: JYD-34 isolate of Dirofilaria immitis; assay: Efficacy of ivermectin and emodepside, separately and in combination, against induced Dirofilaria immitis infection in dogs (live worm counts at necropsy); settings: in vivo, po
MP3 strain of D. immitis = settings: cited from earlier work
[2] = normal prophylaxis regimens, recent reports

CC[C@H](C)[C@H]1O[C@]2(CC[C@@H]1C)C[C@@H]1C[C@@H](C/C=C(\C)[C@@H](O[C@H]3C[C@H](OC)[C@@H](O[C@H]4C[C@H](OC)[C@@H](O)[C@H](C)O4)[C@H](C)O3)[C@@H](C)/C=C/C=C3\CO[C@@H]4[C@H](O)C(C)=C[C@@H](C(=O)O1)[C@]34O)O2 [ivermectin oral solution, ivermectin]
Efficacy [1]: Less than 50% | Efficacy against MP3 strain (MP3 strain of D. immitis; in vivo): incomplete efficacy

CO[C@H]1C[C@H](O[C@@H]2/C(C)=C/C[C@@H]3C[C@@H](C[C@]4(CC[C@H](C)[C@@H](C5CCCCC5)O4)O3)OC(=O)[C@@H]3C=C(C)/C(=N/O)[C@H]4OC/C(=C\C=C\[C@@H]2C)[C@]43O)O[C@@H](C)[C@@H]1O [selamectin]
Efficacy against MP3 strain (MP3 strain of D. immitis; [2]): incomplete efficacy

milbemycin oxime
Efficacy against MP3 strain (MP3 strain of D. immitis; [2]): incomplete efficacy

From patent US10993988B2, “Anthelmintic combinations and methods of use thereof” (BOEHRINGER INGELHEIM ANIMAL HEALTH USA INC., priority 2015, dated 2021)
